Legend:
Type in all cases: in vivo, human
[1] = system: subjects with mild-to-moderate Alzheimer's disease; assay: Clinical study, Clinical Dementia Rating-Sum of Boxes (CDR-SB)
Procedure: (§1) A double-blind study of 3 doses of the Test Composition or placebo in subjects with mild-to-moderate Alzheimer's disease, with or without receiving a concomitant AChEI for 24 weeks (168 days) after a 7 day placebo run-in period.
(§2) Total number of subjects in the safety population was 409 subjects that were dosed once-daily with a dosing-capsule for a period of 168 days. The subjects dosed, and the particular dosing, included: 104 subjects dosed with Placebo capsule; and 305 subjects dosed with Test Compound (104 subjects with 0.3 mg capsules; 101 subjects with 1 mg capsules; and 100 subjects with 2 mg capsules).
(§3) The population included generally healthy male or female subjects, aged 50 to ≦85 years, with mild-to-moderate Alzheimer's disease, consistent with criteria defined by a Work Group of the National Institute of Neurological and Communicative Disorders and Stroke—Alzheimer's Disease and Related Disorders Association, of mild to moderate severity, with a Mini-Mental State Examination score (MMSE) 14 and ≦24, and a Clinical Dementia Rating Scale Sum of the Boxes (CDR-SB) score of 2. […] Subjects were required to be either receiving a stable dose of an AChEI (donepezil or rivastigmine) for at least 3 months before screening or not presently being treated with an AChEI or mementine for at least 30 days.
(§4) Subjects with mild to moderate Alzheimer's disease receiving stable treatment with an AChEI (donepezil or rivastigmine: ‘add-on’ subjects) or not receiving an AChEI (de novo subjects′) received 0.3, 1, or 2 mg doses of Test Composition or placebo for up to 24 weeks (168 days) of double-blind treatment, after a 7-day single-blind, placebo run-in period to assess study drug compliance. A follow-up telephone contact was conducted approximately 15 days after the last dose of study drug for questions regarding safety.
Clinical Dementia Rating-Sum of Boxes CDR-SB
The CDR-SB test employed herein is based on the procedure developed by Hughs C D, Berg L, Danziger W L, Coben L A, and Martin R L. “A new clinical scale for the staging of dementia”; Br J Psychiatry. 1982; 140:566-572, and provides an assessment of six (6) dimensions: Memory, Orientation, Judgment and Problem Solving, Community Affairs, Home and Hobbies, and Personal Care.
Each of the six CDR dimensions are scored separately with well-defined anchors from 0 to 3.0 (no impairment to severe illness). The total sum of boxes ranges from 0 to 18. Higher totals indicate more severe impairment. A decrease from baseline indicates improvement.

[2] = system: subjects with mild-to-moderate Alzheimer's disease; assay: Clinical study, Mini-Mental State Examination (MMSE)
Procedure: as §1, §2, §3, §4
Mini-Mental State Examination (MMSE)
The MMSE test employed herein is based on the procedure developed by Folstein, M., Folstein, S., McHugh, P. Mini-Mental State: “A Practical Method for Grading the Cognitive State of Patients for the Clinician”; Journal of Psychiatric Research 1975, 12:189-98.
The MMSE test assesses and/or evaluates memory, orientation, recognition, attention, concentration, language, and praxis. The MMSE total score ranges from 0 to 30 points. Lower scores indicate a lower level of functioning. An increase from baseline indicates improvement.

[3] = system: subjects with mild-to-moderate Alzheimer's disease; assay: Clinical study, Memory composite score
Procedure: as §1, §4
These analyses were prespecified in the analytical plan (ITT population), and included the following: Cognition composite score (ADAS-cog Word Recall, Word Recognition, & Orientation, and COWAT and CFT), Memory composite score (ADAS-cog Word Recall, Word Recognition, and Orientation), and Executive Function composite score (COWAT and CFT).
Composite Scores—Three composite scores were calculated: (1) Composite Cognition Score (ADAS-cog Word Recall, Word Recognition, and Orientation, COWAT and CFT); (2) Memory Composite Score (ADAS-cog Word Recall, Word Recognition, and Orientation); and (3) Executive Function Composite Score (COWAT and CFT).
The composite score is only computed when all test scores are available.

Cl.O.O=C(N[C@H]1CN2CCC1CC2)c1cc2cccc(Cl)c2s1 [Test Compound, (R)-7-chloro-N-(quinuclidin-3-yl)benzo[b]thiophene-2-carboxamide, hydrochloride, monohydrate]
CDR-SB (Baseline was assigned the value of zero @ Week 0) ([1]; 0.3 mg daily dose, Week 4): 0.0026 | CDR-SB (Baseline was assigned the value of zero @ Week 0) ([1]; 0.3 mg daily dose, Week 12): 0.0542 | CDR-SB (Baseline was assigned the value of zero @ Week 0) ([1]; 0.3 mg daily dose, Week 18): 0.2325 | CDR-SB (Baseline was assigned the value of zero @ Week 0) ([1]; 0.3 mg daily dose, Week 23): 0.4427 | CDR-SB (Baseline was assigned the value of zero @ Week 0) ([1]; 1 mg daily dose, Week 4): −0.2365 | CDR-SB (Baseline was assigned the value of zero @ Week 0) ([1]; 1 mg daily dose, Week 12): −0.0811 | CDR-SB (Baseline was assigned the value of zero @ Week 0) ([1]; 1 mg daily dose, Week 18): −0.0424 | CDR-SB (Baseline was assigned the value of zero @ Week 0) ([1]; 1 mg daily dose, Week 23): 0.1214 | CDR-SB (Baseline was assigned the value of zero @ Week 0) ([1]; 2 mg daily dose, Week 4): −0.1361 | CDR-SB (Baseline was assigned the value of zero @ Week 0) ([1]; 2 mg daily dose, Week 12): −0.1352 | CDR-SB (Baseline was assigned the value of zero @ Week 0) ([1]; 2 mg daily dose, Week 18): −0.1368 | CDR-SB (Baseline was assigned the value of zero @ Week 0) ([1]; 2 mg daily dose, Week 23): −0.088 | CDR-SB Effect Size ([1]; 2 mg dose versus Placebo): 0.31 | CDR-SB (Baseline was assigned the value of zero @ Week 0) ([1]; Add-On patients (stable donepezil or rivastigmine), 0.3 mg daily dose, Week 4): −0.2148 | CDR-SB (Baseline was assigned the value of zero @ Week 0) ([1]; Add-On patients (stable donepezil or rivastigmine), 0.3 mg daily dose, Week 12): −0.1333 | CDR-SB (Baseline was assigned the value of zero @ Week 0) ([1]; Add-On patients (stable donepezil or rivastigmine), 0.3 mg daily dose, Week 18): 0.0576 | CDR-SB (Baseline was assigned the value of zero @ Week 0) ([1]; Add-On patients (stable donepezil or rivastigmine), 0.3 mg daily dose, Week 23): 0.4174 | CDR-SB (Baseline was assigned the value of zero @ Week 0) ([1]; Add-On patients (stable donepezil or rivastigmine), 1 mg daily dose, Week 4): −0.2473 | CDR-SB (Baseline was assigned the value of zero @ Week 0) ([1]; Add-On patients (stable donepezil or rivastigmine), 1 mg daily dose, Week 12): 0.1511 | CDR-SB (Baseline was assigned the value of zero @ Week 0) ([1]; Add-On patients (stable donepezil or rivastigmine), 1 mg daily dose, Week 18): 0.2268 | CDR-SB (Baseline was assigned the value of zero @ Week 0) ([1]; Add-On patients (stable donepezil or rivastigmine), 1 mg daily dose, Week 23): 0.476 | CDR-SB (Baseline was assigned the value of zero @ Week 0) ([1]; Add-On patients (stable donepezil or rivastigmine), 2 mg daily dose, Week 4): −0.236 | CDR-SB (Baseline was assigned the value of zero @ Week 0) ([1]; Add-On patients (stable donepezil or rivastigmine), 2 mg daily dose, Week 12): −0.2247 | CDR-SB (Baseline was assigned the value of zero @ Week 0) ([1]; Add-On patients (stable donepezil or rivastigmine), 2 mg daily dose, Week 18): −0.1084 | CDR-SB (Baseline was assigned the value of zero @ Week 0) ([1]; Add-On patients (stable donepezil or rivastigmine), 2 mg daily dose, Week 23): −0.1633 | CDR-SB (Baseline was assigned the value of zero @ Week 0) ([1]; de novo patients, 0.3 mg daily dose, Week 4): 0.0816 | CDR-SB (Baseline was assigned the value of zero @ Week 0) ([1]; de novo patients, 0.3 mg daily dose, Week 12): 0.1082 | CDR-SB (Baseline was assigned the value of zero @ Week 0) ([1]; de novo patients, 0.3 mg daily dose, Week 18): 0.27 | CDR-SB (Baseline was assigned the value of zero @ Week 0) ([1]; de novo patients, 0.3 mg daily dose, Week 23): 0.3392 | CDR-SB (Baseline was assigned the value of zero @ Week 0) ([1]; de novo patients, 1 mg daily dose, Week 4): −0.3161 | CDR-SB (Baseline was assigned the value of zero @ Week 0) ([1]; de novo patients, 1 mg daily dose, Week 12): −0.3858 | CDR-SB (Baseline was assigned the value of zero @ Week 0) ([1]; de novo patients, 1 mg daily dose, Week 18): −0.3763 | CDR-SB (Baseline was assigned the value of zero @ Week 0) ([1]; de novo patients, 1 mg daily dose, Week 23): −0.288 | CDR-SB (Baseline was assigned the value of zero @ Week 0) ([1]; de novo patients, 2 mg daily dose, Week 4): −0.133 | CDR-SB (Baseline was assigned the value of zero @ Week 0) ([1]; de novo patients, 2 mg daily dose, Week 12): −0.1475 | CDR-SB (Baseline was assigned the value of zero @ Week 0) ([1]; de novo patients, 2 mg daily dose, Week 18): −0.2625 | CDR-SB (Baseline was assigned the value of zero @ Week 0) ([1]; de novo patients, 2 mg daily dose, Week 23): −0.1239 | MMSE (Baseline was assigned the value of zero @ Week 0) ([2]; 0.3 mg daily dose, Week 4): −0.0411 | MMSE (Baseline was assigned the value of zero @ Week 0) ([2]; 0.3 mg daily dose, Week 12): 0.185 | MMSE (Baseline was assigned the value of zero @ Week 0) ([2]; 0.3 mg daily dose, Week 18): −0.3601 | MMSE (Baseline was assigned the value of zero @ Week 0) ([2]; 0.3 mg daily dose, Week 23): −0.3112 | MMSE (Baseline was assigned the value of zero @ Week 0) ([2]; 1 mg daily dose, Week 4): 0.9142 | MMSE (Baseline was assigned the value of zero @ Week 0) ([2]; 1 mg daily dose, Week 12): 0.7836 | MMSE (Baseline was assigned the value of zero @ Week 0) ([2]; 1 mg daily dose, Week 18): 0.7253 | MMSE (Baseline was assigned the value of zero @ Week 0) ([2]; 1 mg daily dose, Week 23): 0.4416 | MMSE (Baseline was assigned the value of zero @ Week 0) ([2]; 2 mg daily dose, Week 4): 0.5262 | MMSE (Baseline was assigned the value of zero @ Week 0) ([2]; 2 mg daily dose, Week 12): 0.3526 | MMSE (Baseline was assigned the value of zero @ Week 0) ([2]; 2 mg daily dose, Week 18): 0.723 | MMSE (Baseline was assigned the value of zero @ Week 0) ([2]; 2 mg daily dose, Week 23): 0.5139 | MMSE Effect Size ([2]; 2 mg dose versus Placebo): 0.21 | Memory Composite Score (Baseline was assigned the value of zero @ Week 0) ([3]; 0.3 mg daily dose, Week 4): −0.0084 | Memory Composite Score (Baseline was assigned the value of zero @ Week 0) ([3]; 0.3 mg daily dose, Week 12): −0.0108 | Memory Composite Score (Baseline was assigned the value of zero @ Week 0) ([3]; 0.3 mg daily dose, Week 18): −0.0294 | Memory Composite Score (Baseline was assigned the value of zero @ Week 0) ([3]; 0.3 mg daily dose, Week 23): −0.0645 | Memory Composite Score (Baseline was assigned the value of zero @ Week 0) ([3]; 1 mg daily dose, Week 4): −0.0062 | Memory Composite Score (Baseline was assigned the value of zero @ Week 0) ([3]; 1 mg daily dose, Week 12): 0.08 | Memory Composite Score (Baseline was assigned the value of zero @ Week 0) ([3]; 1 mg daily dose, Week 18): −0.0456 | Memory Composite Score (Baseline was assigned the value of zero @ Week 0) ([3]; 1 mg daily dose, Week 23): 0.0113 | Memory Composite Score (Baseline was assigned the value of zero @ Week 0) ([3]; 2 mg daily dose, Week 4): −0.0032 | Memory Composite Score (Baseline was assigned the value of zero @ Week 0) ([3]; 2 mg daily dose, Week 12): 0.1021 | Memory Composite Score (Baseline was assigned the value of zero @ Week 0) ([3]; 2 mg daily dose, Week 18): 0.117 | Memory Composite Score (Baseline was assigned the value of zero @ Week 0) ([3]; 2 mg daily dose, Week 23): 0.169 | Memory composite score Effect Size ([3]; 2 mg versus placebo, over a 23 week period): 0.37
